Data on 24 compounds can be found in patent publication US7528138B2, “Pyrazolo[1,5-a]pyrimidines useful as inhibitors of protein kinases” (Vertex Pharmaceuticals Incorporated, priority 2004, dated 2009).

SMILES strings stand for the structures. A value given as a limit tells only on which side of the number the result lay.

Common to all, as to assay type: biochemical
One experiment deals with T1, JAK3 (Homo sapiens, UniProt P52333).
T1 sequence (P52333 1-1124): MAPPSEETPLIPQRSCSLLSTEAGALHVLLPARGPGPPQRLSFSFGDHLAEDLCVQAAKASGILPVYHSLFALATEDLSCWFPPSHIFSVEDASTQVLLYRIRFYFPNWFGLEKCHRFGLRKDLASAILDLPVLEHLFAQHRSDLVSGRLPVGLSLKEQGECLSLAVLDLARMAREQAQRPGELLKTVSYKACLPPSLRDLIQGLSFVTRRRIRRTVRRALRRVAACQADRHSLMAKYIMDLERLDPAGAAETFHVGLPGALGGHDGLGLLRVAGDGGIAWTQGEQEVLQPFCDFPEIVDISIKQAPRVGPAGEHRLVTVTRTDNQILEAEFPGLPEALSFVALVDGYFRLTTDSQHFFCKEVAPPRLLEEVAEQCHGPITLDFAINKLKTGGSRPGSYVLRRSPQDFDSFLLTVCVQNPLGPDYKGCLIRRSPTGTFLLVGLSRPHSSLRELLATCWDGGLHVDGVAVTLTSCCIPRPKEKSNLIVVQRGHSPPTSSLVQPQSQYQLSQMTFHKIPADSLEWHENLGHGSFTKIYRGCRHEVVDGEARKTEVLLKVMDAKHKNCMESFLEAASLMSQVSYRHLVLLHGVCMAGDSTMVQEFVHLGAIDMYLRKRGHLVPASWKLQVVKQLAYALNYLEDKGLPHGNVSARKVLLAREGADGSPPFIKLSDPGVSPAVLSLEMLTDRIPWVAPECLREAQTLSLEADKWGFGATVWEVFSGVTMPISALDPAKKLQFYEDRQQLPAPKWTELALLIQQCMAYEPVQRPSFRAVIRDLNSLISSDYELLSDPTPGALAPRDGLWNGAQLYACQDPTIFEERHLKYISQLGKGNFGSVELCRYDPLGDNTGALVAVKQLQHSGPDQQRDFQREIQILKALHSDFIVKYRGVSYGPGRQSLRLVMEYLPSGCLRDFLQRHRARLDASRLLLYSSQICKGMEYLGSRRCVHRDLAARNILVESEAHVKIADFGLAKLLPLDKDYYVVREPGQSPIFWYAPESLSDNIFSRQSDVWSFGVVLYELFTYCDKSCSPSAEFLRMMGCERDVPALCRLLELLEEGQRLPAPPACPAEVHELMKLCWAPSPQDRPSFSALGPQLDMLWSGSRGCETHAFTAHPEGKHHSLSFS
Description: JAK3 Inhibition Assay, 33P incorporation. Conditions: enzyme inhibition data (Ki), Table 11. Put shortly: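 Recombinant JAK3 at 1 nM in HEPES pH 7.4 buffer with 10 mM MgCl2, 1 mM DTT and 0.01% BSA. Substrates were 5 μM ATP (200 uCi/μmole) and 1 μM poly(Glu)4Tyr, reacted 20 min at 25 °C. Stopped with TCA, and 33P incorporation counted on glass fiber filters.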

The next experiment has as its target c-Met (Homo sapiens, UniProt P08581). The experiment is described as follows: c-Met Inhibition Assay, coupled enzyme system. Conditions: enzyme inhibition data (Ki), Table 11. A digest of the protocol:
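Pyruvate kinase/lactate dehydrogenase-coupled NADH assay in HEPES pH 7.5 with 80 nM c-Met, 200 μM ATP and 10 μM polyGluTyr at 30° C. Compound (0.006–12.5 μM final, 12-point) preincubated 10 min before ATP start; rates over 10 min gave Ki.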

In the next experiment the target is T2, Itk (Homo sapiens, UniProt Q08881).
T2 sequence (Q08881 1-620): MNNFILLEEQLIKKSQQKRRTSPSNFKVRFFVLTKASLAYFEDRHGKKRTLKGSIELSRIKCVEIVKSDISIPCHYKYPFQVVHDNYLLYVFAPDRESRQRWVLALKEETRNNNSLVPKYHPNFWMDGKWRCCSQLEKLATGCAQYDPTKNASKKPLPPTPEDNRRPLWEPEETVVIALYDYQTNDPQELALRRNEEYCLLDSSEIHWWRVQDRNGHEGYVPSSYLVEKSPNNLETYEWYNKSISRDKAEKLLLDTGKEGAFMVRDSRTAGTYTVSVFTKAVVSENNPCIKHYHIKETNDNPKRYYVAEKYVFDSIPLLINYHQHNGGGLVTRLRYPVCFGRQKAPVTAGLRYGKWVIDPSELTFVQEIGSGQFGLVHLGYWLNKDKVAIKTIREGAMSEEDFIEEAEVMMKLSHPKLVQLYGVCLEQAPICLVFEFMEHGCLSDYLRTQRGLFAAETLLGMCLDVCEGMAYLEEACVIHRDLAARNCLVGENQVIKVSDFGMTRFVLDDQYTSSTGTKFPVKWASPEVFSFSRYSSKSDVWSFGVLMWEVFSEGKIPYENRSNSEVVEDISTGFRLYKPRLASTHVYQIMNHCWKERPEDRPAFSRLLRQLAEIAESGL
Description: ITK Inhibition Assay (Radiometric), radioactive-phosphate incorporation. Conditions: enzyme inhibition data (Ki), Table 11; radiometric or UV assay not stated. Put shortly:
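Radiometric 33P incorporation into SAM68 peptide (D332-443) with filter capture and scintillation counting; 10 min pre-incubation then 10 min reaction at 25° C. IC50 format: 30 nM Itk, 15 μM ATP, 2 μM peptide, HEPES pH 7.5. Ki(app) format: 50 nM Itk, 7.5 μM ATP, 3 μM peptide, MOPS pH 7.0.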

c-Met, sequence (P08581 25-1390): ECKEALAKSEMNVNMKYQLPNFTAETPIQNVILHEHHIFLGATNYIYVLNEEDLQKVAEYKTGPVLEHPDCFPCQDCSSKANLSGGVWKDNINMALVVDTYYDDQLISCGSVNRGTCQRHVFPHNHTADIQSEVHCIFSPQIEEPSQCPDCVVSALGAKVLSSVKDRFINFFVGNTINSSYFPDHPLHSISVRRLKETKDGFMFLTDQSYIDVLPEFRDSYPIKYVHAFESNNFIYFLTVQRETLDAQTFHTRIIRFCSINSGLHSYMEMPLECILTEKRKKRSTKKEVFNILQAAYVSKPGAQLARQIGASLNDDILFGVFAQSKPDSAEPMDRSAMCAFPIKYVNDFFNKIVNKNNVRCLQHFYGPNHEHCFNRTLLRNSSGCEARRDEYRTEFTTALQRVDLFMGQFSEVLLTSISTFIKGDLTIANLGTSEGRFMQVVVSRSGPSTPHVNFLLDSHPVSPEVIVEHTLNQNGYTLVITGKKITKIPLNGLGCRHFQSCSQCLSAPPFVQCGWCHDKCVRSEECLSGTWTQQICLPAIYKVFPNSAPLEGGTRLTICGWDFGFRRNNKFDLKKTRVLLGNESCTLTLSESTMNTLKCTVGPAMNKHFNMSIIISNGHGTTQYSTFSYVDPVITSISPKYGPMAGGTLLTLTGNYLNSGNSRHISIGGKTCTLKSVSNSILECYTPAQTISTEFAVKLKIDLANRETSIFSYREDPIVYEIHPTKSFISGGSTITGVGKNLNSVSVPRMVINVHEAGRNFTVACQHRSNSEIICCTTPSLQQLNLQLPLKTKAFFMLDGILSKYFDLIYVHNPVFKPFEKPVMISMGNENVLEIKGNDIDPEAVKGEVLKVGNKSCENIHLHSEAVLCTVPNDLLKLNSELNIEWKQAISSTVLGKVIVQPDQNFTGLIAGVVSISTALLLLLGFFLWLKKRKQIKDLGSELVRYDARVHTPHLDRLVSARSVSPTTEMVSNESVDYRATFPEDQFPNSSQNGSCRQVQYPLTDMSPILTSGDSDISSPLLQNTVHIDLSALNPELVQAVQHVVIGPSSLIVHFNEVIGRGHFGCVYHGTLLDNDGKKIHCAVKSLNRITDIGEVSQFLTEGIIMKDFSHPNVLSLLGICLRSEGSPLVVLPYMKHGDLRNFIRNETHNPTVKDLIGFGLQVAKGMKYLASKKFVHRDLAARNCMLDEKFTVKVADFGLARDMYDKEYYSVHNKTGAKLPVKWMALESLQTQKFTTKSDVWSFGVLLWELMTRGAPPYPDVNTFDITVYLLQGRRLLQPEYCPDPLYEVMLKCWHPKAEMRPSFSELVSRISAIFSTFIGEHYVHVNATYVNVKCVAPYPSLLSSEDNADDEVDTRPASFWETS

Consider `CC(C)CN(C)c1ccc(-c2cnc3c(-c4ccccn4)c(N)nn3c2)cn1` [Compound V-172], for which the values for the Ki at JAK3, at c-Met and at Itk were above 5000 nM, 500 to 5000 nM and 500 to 5000 nM, respectively.
`Cc1cnc2c(-c3cc(N4CCC[C@H]4CN4CCCC4)ncn3)c(N)nn2c1` [Compound V-305]: the inhibitory constant (Ki) was above 5000 nM at JAK3, 500 to 5000 nM at c-Met and 500 to 5000 nM at Itk.
On to `CCN(CCN)c1ccc(-c2cnc3c(-c4ccccn4)c(N)nn3c2)cn1` [Compound V-157], for which the Ki at JAK3 is above 5000 nM; on c-Met it was below 500 nM; on Itk it was below 500 nM.
For the compound `Nc1nn2cc(-c3ccc(N4CCN(c5cnccn5)CC4)nc3)cnc2c1-c1ccccn1` [Compound V-162], the Ki is above 5000 nM on JAK3, 500 to 5000 nM on c-Met and 500 to 5000 nM at Itk.
Regarding `CCCCNC(=O)c1cccc(-c2cnc3c(-c4ccccn4)c(N)nn3c2)n1` [Compound V-109], the Ki was above 5000 nM on JAK3, below 500 nM at c-Met and 500 to 5000 nM at Itk.
The like results for `Nc1ccc(CNC(=O)c2cnc3c(-c4ccccn4)c(N)nn3c2)cc1` [Compound V-199] were, in that order, above 5000 nM, 500 to 5000 nM and 500 to 5000 nM.
The corresponding values for `Cc1cnc2c(-c3cc(N[C@H](CO)CC(C)C)ncn3)c(N)nn2c1` [Compound V-298] are 500 to 5000 nM, below 500 nM and below 500 nM.
For `N#CCCN(Cc1ccccc1)C(=O)c1c(N)nn2cc(-c3ccncn3)cnc12` [Compound V-38], the results for the Ki on JAK3, at c-Met and on Itk were above 5000 nM, 500 to 5000 nM and 500 to 5000 nM, respectively.
Turning to `N#Cc1cccc(-c2cnc3c(-c4ccccn4)c(N)nn3c2)c1` [Compound V-197], the results for the Ki at JAK3, on c-Met and at Itk were above 5000 nM, below 500 nM and below 500 nM, respectively.
Consider `CN1CCC(N(C)C(=O)c2ccc(-c3cnc4c(-c5ccccn5)c(N)nn4c3)nc2)CC1` [Compound V-61], for which the Ki is 500 to 5000 nM at JAK3, below 500 nM on c-Met and below 500 nM on Itk.
For `Nc1nn2cc(-c3ccc(N4CCC(N5CCCC5)CC4)nc3)cnc2c1-c1ccccn1` [Compound V-164], the inhibition constant Ki was above 5000 nM on JAK3, below 500 nM on c-Met and below 500 nM at Itk.
In the case of `COc1ccc(-c2cnc3c(-c4ccccc4)c(N)nn3c2)cc1` [Compound V-186], the figures for the inhibition constant Ki at JAK3, on c-Met and at Itk were above 5000 nM, 500 to 5000 nM and below 500 nM, respectively.
Take `Cc1cnc2c(-c3cc(NC4CCCC4)ncn3)c(N)nn2c1` [Compound V-332]: the Ki was 500 to 5000 nM at JAK3, below 500 nM on c-Met and below 500 nM at Itk.
For `CCC(C)Nc1cc(-c2c(N)nn3cc(C)cnc23)ncn1` (stereo not drawn) [Compound V-282], the values for the Ki at JAK3, on c-Met and at Itk were 500 to 5000 nM, below 500 nM and 500 to 5000 nM, respectively.
As to `CC(=O)c1ccccc1-c1cnc2c(-c3ccccn3)c(N)nn2c1` [Compound V-6], the Ki at JAK3, at c-Met and on Itk was 500 to 5000 nM throughout.
As for `Nc1nn2cc(-c3cccnc3N3CCN(CCO)CC3)cnc2c1-c1ccccn1` [Compound V-266], the figures for the Ki on JAK3, at c-Met and at Itk were above 5000 nM, 500 to 5000 nM and 500 to 5000 nM, respectively.
For `CCOC(=O)c1c(N)nn2cc(-c3ccncn3)cnc12` [Compound V-27], the Ki is above 5000 nM at JAK3, 500 to 5000 nM at c-Met and 500 to 5000 nM on Itk.
For `Nc1nn2cc(CCCNCC3CCCO3)cnc2c1-c1ccccn1` (stereo not drawn) [Compound V-329], the Ki on JAK3 is above 5000 nM; on c-Met it was below 500 nM; at Itk it was 500 to 5000 nM.
For the compound `Cc1cnc2c(-c3cc(N4CCCC(CO)C4)ncn3)c(N)nn2c1` (stereo not drawn) [Compound V-340], the Ki on JAK3 was 500 to 5000 nM; at c-Met, below 500 nM; on Itk, 500 to 5000 nM.
Turning to `Nc1nn2cc(-c3ccc(C(=O)N4CCCCC4)cn3)cnc2c1-c1ccccn1` [Compound V-91], the Ki at JAK3, on c-Met and at Itk was below 500 nM throughout.
With `CC[C@H](CO)Nc1cc(-c2c(N)nn3cc(C)cnc23)ncn1` [Compound V-287], the Ki on JAK3 was 500 to 5000 nM; at c-Met, below 500 nM; on Itk, 500 to 5000 nM.
With `Cc1cnc2c(-c3cc(N[C@@H]4CCC[C@H]4OCc4ccccc4)ncn3)c(N)nn2c1` [Compound V-336], the Ki at JAK3 was 500 to 5000 nM; at c-Met, below 500 nM; at Itk, 500 to 5000 nM.
For the compound `CN(C)c1ccc(CNC(=O)c2c(N)nn3cc(-c4ccncn4)cnc23)cc1` [Compound V-43], the Ki on JAK3 was above 5000 nM; on c-Met, 500 to 5000 nM; at Itk it was 500 to 5000 nM.
With `Nc1nn2cc(-c3ccncn3)cnc2c1C(=O)N1CCC[C@H]1CO` [Compound V-39], the Ki is above 5000 nM on JAK3, 500 to 5000 nM at c-Met and 500 to 5000 nM on Itk.
